Patent publication US7511041B2, “Fused azole-pyrimidine derivatives” (Bayer Pharmaceuticals Corporation, priority 2002, dated 2009)

Key:
[1] = molecular target: T1, Recombinant human PI3Kγ (full length human PI3K p110γ) (Homo sapiens, UniProt P48736); assay: Kinase assay of PI3Kγ (solid-phase lipid kinase assay); format: biochemical; conditions: Table 1, isozyme not given; read-out: in vitro
T1 construct: full length human PI3K p110γ fused with a His6-tag at the C-terminus; His6 (C); purchased ALEXIS BIOCHEMICALS #201-055-C010; host or cells: S. frugiperda 9 insect cells
T1 sequence (P48736 whole entry, the tested form may be a part): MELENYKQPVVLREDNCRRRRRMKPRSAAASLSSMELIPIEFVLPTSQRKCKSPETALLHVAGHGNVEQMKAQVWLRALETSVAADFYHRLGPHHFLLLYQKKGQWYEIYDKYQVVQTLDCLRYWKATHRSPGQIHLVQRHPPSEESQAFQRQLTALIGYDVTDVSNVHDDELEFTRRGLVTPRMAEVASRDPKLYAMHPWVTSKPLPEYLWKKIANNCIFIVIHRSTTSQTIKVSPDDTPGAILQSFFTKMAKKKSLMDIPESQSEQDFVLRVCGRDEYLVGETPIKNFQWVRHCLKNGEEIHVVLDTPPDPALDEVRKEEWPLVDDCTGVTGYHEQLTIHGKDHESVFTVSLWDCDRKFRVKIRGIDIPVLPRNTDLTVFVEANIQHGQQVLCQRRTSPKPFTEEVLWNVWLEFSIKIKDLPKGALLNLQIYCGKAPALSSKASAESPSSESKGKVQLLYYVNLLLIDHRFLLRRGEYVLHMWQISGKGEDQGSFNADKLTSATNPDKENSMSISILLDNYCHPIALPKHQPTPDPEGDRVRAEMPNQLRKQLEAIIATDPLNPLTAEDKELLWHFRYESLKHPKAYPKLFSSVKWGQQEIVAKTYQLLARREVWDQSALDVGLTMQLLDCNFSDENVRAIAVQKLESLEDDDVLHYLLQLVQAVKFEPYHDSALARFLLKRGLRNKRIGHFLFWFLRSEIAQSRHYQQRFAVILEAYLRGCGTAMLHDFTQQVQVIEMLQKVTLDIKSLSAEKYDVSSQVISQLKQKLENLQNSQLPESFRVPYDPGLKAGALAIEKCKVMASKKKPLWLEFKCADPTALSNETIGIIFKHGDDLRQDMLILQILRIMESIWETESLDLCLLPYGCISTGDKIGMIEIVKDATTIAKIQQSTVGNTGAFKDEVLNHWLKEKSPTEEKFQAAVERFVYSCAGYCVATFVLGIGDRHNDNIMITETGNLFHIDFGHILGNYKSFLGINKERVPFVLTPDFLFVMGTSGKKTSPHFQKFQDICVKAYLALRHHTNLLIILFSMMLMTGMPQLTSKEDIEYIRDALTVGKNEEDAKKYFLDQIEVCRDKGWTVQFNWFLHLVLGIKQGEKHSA

IC50 [1] [nM]	melting point	SMILES
100 to 500	> 300 °C	Cl.O/C(=C\C1=Nc2ccccc2C2=NCCN12)c1nccs1 [Example 1-155]
< 100	222 °C	Cc1nc(C)c(/C(O)=C/C2=Nc3ccccc3C3=NCCN23)s1 [Example 1-156]
100 to 500	> 300 °C	Cl.O/C(=C\C1=Nc2ccccc2C2=NCCN12)c1ccc2[nH]cnc2c1 [Example 1-157]
100 to 500	190 °C (dec.)	O/C(=C\C1=Nc2ccccc2C2=NCCN12)C(Cl)(Cl)Cl [Example 1-158]
< 100	> 300 °C	O/C(=C\C1=Nc2ncccc2C2=NCCN12)c1ccc2[nH]cnc2c1 [Example 1-159]
100 to 500	247 °C (dec.)	Cl.O/C(=C\C1=Nc2ncccc2C2=NCCN12)c1ccc2[nH]cnc2c1 [Example 1-160]
100 to 500	> 300 °C	CC(=O)Nc1ccc(/C(O)=C/C2=Nc3nc(C)ccc3C3=NCCN23)cn1 [Example 1-161]
100 to 500	200 °C	CC(C)(C)OC(=O)CCc1ccc2c(n1)N=C(/C=C(\O)c1cccnc1)N1CCN=C21 [Example 1-163]
100 to 500	230 °C	O/C(=C\C1=Nc2cnccc2C2=NCCN12)c1cccnc1 [Example 1-164]
500 to 2000	130 to 139 °C	O/C(=C\C1=Nc2ccccc2C2=NCCN12)c1ccccc1 [Example 1-166]
> 2000	276 °C	O=[N+]([O-])c1cccc(/C(O)=C/C2=Nc3ccccc3C3=NCCN23)c1 [Example 1-167]
> 2000	240 to 248 °C	O=[N+]([O-])c1ccc(/C(O)=C/C2=Nc3ccccc3C3=NCCN23)cc1 [Example 1-168]
> 2000	212 to 214 °C	COc1ccc(/C(O)=C/C2=Nc3ccccc3C3=NCCN23)cc1 [Example 1-169]
> 2000	252 to 256 °C	O/C(=C\C1=Nc2ccccc2C2=NCCN12)c1ccccc1O [Example 1-170]
> 2000	224 to 227 °C	O/C(=C\C1=Nc2ccccc2C2=NCCN12)c1cccc(Cl)c1 [Example 1-171]
> 2000	260 to 264 °C	N#Cc1ccc(/C(O)=C/C2=Nc3ccccc3C3=NCCN23)cc1 [Example 1-172]
500 to 2000	195 °C	O/C(=C\C1=Nc2ccccc2C2=NCCN12)c1ccccn1 [Example 1-173]
100 to 500	204 to 205 °C	O/C(=C\C1=Nc2ccccc2C2=NCCN12)c1ccncc1 [Example 1-175]
500 to 2000	256 °C	N#Cc1ccc(/C(O)=C/C2=Nc3ccccc3C3=NCCN23)s1 [Example 1-177]
> 2000	255 to 258 °C	O=[N+]([O-])c1cc(/C(O)=C/C2=Nc3ccccc3C3=NCCN23)cs1 [Example 1-178]
> 2000	> 300 °C	Cc1nc(NC(=O)OC(C)(C)C)sc1/C(O)=C/C1=Nc2ccccc2C2=NCCN12 [Example 1-179]
> 2000	220 to 225 °C	O/C(=C\C1=Nc2ccccc2C2=NCCN12)c1csc2ccccc12 [Example 1-180]
> 2000	113 °C	CCC/C(O)=C/C1=Nc2ccccc2C2=NCCN12 [Example 1-182]

IC50 [1] [nM]	melting point	SMILES
500 to 2000	134 to 138 °C	CC(C)(C)/C(O)=C/C1=Nc2ccccc2C2=NCCN12 [Example 1-183]
500 to 2000	240 °C	O/C(=C\C1=Nc2ccccc2C2=NCCN12)C(F)(F)F [Example 1-184]
500 to 2000	249 to 252 °C	COc1cc2c(cc1OC)C1=NCCN1C(/C=C(\O)c1ccccc1)=N2 [Example 1-185]
> 2000	257 to 259 °C	COc1cc2c(cc1OC)C1=NCCN1C(/C=C(\O)c1cccc(Cl)c1)=N2 [Example 1-186]
> 2000	307 to 308 °C	COc1cc2c(cc1OC)C1=NCCN1C(/C=C(\O)c1ccc(C#N)cc1)=N2 [Example 1-187]
500 to 2000	260 °C	O/C(=C\C1=Nc2ccc(Cl)cc2C2=NCCN12)c1cccnc1 [Example 1-189]
500 to 2000	186 to 188 °C	O/C(=C\C1=Nc2cc(Cl)ccc2C2=NCCN12)c1ccccc1 [Example 1-190]
> 2000	259 to 262 °C	O=[N+]([O-])c1ccc2c(c1)C1=NCCN1C(/C=C(\O)c1ccccc1)=N2 [Example 1-191]
500 to 2000	306 °C	O=[N+]([O-])c1ccc2c(c1)C1=NCCN1C(/C=C(\O)c1cccnc1)=N2 [Example 1-192]
> 2000	156 to 160 °C	CCC(C(=O)c1ccccc1)C1=Nc2ccccc2C2=NCCN21 (stereo not shown) [Example 1-193]
< 100	233 to 234 °C	COc1c(OCC2CCCCO2)ccc2c1N=C(/C=C(\O)c1cccnc1)N1CCN=C21 (stereo not shown) [Example 1-194]
< 100	284 to 285 °C	COc1c(OCC#N)ccc2c1N=C(/C=C(\O)c1cccnc1)N1CCN=C21 [Example 1-195]
< 100	229 to 231 °C	COc1c(OCc2nn[nH]n2)ccc2c1N=C(/C=C(\O)c1cccnc1)N1CCN=C21 [Example 1-196]
< 100	215 to 216 °C	COc1c(OCCCC(=O)N2CCOCC2)ccc2c1N=C(/C=C(\O)c1cccnc1)N1CCN=C21.Cl [Example 1-198]
< 100	178 to 179 °C	COC(=O)CCCOc1c(OC)ccc2c1N=C(/C=C(\O)c1cccnc1)N1CCN=C21.Cl [Example 1-199]
100 to 500	286 °C (dec.)	COc1ccc2c(c1OCC(=O)O)N=C(/C=C(\O)c1cccnc1)N1CCN=C21.Cl [Example 1-200]
< 100	273 °C (dec.)	Cl.O=C(O)CCc1ccc2c(c1)N=C(/C=C(\O)c1cccnc1)N1CCN=C21 [Example 1-201]
100 to 500	285 °C (dec.)	Cl.O=C(O)CCCc1ccc2c(n1)N=C(/C=C(\O)c1cccnc1)N1CCN=C21 [Example 1-202]
100 to 500	228 °C	CN(C)C(=O)NCCc1ccc2c(n1)N=C(/C=C(\O)c1cccnc1)N1CCN=C21 [Example 1-203]
500 to 2000	262 °C	O=C(NCCc1ccc2c(n1)N=C(/C=C(\O)c1cccnc1)N1CCN=C21)N1CCOCC1 [Example 1-204]
100 to 500	246 °C	O=C(NCCc1ccc2c(n1)N=C(/C=C(\O)c1cccnc1)N1CCN=C21)N1CCCCC1 [Example 1-205]
< 100	267 °C	Cl.O=C(O)CCCCc1ccc2c(n1)N=C(/C=C(\O)c1cccnc1)N1CCN=C21 [Example 1-206]
100 to 500	253 °C (dec.)	CC(=O)Nc1ccc(/C(O)=C/C2=Nc3c(CN4CCOCC4)cccc3C3=NCCN23)cn1 [Example 1-208]

SMILES	IC50 [1] [nM]	melting point
O/C(=C\C1=Nc2ccncc2C2=NCCN12)c1cccnc1 [Example 1-165]	100 to 500	250 °C
